From patent USRE37770E1, “Treatment of skin conditions by use of PPARα activators” (The Regents of the University of California, priority 1997, dated 2002)

Tests used:
involucrin protein = assay: Involucrin protein level in keratinocytes by Western Blot; format: cell-based, Human; conditions: for increase in INV protein: high calcium (1.2 mM), 15 μM; for INV protein level relative to the control: low calcium (0.03 mM), 24 hours
Experimental: Measurements of the level of the involucrin protein itself were performed in the culture medium by Western Blot. Various incubations were performed, in media containing clofibrate at concentrations ranging from 0 (vehicle only) to 400 μM and calcium ion at both 0.03 mM and 1.2 mM. The results are shown in FIG. 9a for tests with calcium ion at 0.03 mM, and in FIG. 9b for tests with calcium ion at 1.2 mM. In these figures, the protein contents are expressed as percents of the respective measurements taken from media incubated for the same period of time but in the absence of clofibrate.
The procedures of Example 8 were followed, and measurements were taken on the involucrin protein levels from cells incubated at various concentrations of farnesol and juvenile hormone III ranging from 0 (vehicle only) to 15 μM, in media containing 0.03 mM and 1.2 mM calcium ion, for 24 hours. The results are shown in FIG. 10 for farnesol and FIG. 11 for juvenile hormone III, in 0.03 mM Ca^++.
Protein concentration was assessed by protein electrophoresis and Western blotting. Cells were lysed is 2% SDS and the lysate sonicated. Protein determinations were made by use of a Bicinchoninic add protein assay (Pierce Chemical Company, Rockford, Ill. USA). Following protein determination, equal amounts at protein (50 μg) were separated by electrophoresis an 7.5% polyacrylamide gels and electroblotted onto polyvinylidene […] membranes (0.2-μ, obtained from Bio-Rad Laboratories Hercules, Calif., USA). Involucrin protein was detected by incubation over-night at 4° C. C. with a polyclonal rabbit anti-human involucrin antibody (1:1000 dilution). The involucrin-specific bands on the autoradiograms were quantitated by densitometry by densitometry. Transglutaminase protein expression was measured in a similar mmaner, using stacking, sample and running buffers containing 4 M urea, and the gels following electrophoresis were washed in 4 M urea, 25 mM TRIS-HCl, pH 7.4, 7.5 mM NaCl, 0.1 mM dithiothreitol (DTT), and 2 mM ethylenediamine tetraacetic acid for 90 minutes prior to electoblotting, allowing the transglutaminase to be detected by antibody. Specific bands on the autoradiograms were quantified by densitometry.

involucrin mRNA [1] = assay: Involucrin mRNA in keratinocytes by Northern Blot; format: cell-based, Human; conditions: for involucrin (INV) mRNA level compared to the vehicle alone: low calcium (0.03 mM), 24 hours, 10 μM
Experimental: (§1) Human keratinocyte cells were incubated in culture containing calcium at a concentration of 0.03 mM Ca^++ (a level that is too low to induce differentiation). Also included in the culture medium were clofibrate at 400 μM or ETYA at 10 μM and 20 μM, while separate cell cultures were maintained as controls with neither clofibrate nor ETYA. The production of mRNA for both involucrin and transglutaminase was measured at intervals over a 48-hour time period (0, 6, 12, 24, and 48 hours) by Northern Blot analysis. In each case, the lighter bars represent the control cells and the darker bars the cells incubated in the clofibrate-containing medium. The degree of mRNA generated is expressed as a percent of the control at zero hours.
(§2) Human epidermis was isolated from newborn foreskins and keratinocytes were plated in serum-free keratinocyte growth medium (“KGM”; Clonetics, San Diego, Calif. USA), using conventional techniques. Cells were treated with either the test compounds in vehicle or vehicle alone (<0.1% ethanol) for 24 or 48 hours. The test compounds were obtained from Sigma Chemical Co. (St. Louis. Mo. USA) and were stored as 15 mM stock solutions at −20° C. Mevalonate was solubilized in sterile water.
(§3) Total RNA was isolated by using TRIZOL (Sigma Chemical Co.), following the manufacturer's protocol. Ethanol-precipitate RNA pellets were suspended in sterile, diethylpyrocarbonate (DEPC)-treated water, and RNA was quantified by absorbance at 260 nm using the 260/280 nm ratio as an index of purity. RNA (15 μg per sample) was size fractionated through a 1% agarose gel containing 2.2 M formaldehyde. RNA integrity was visualized following acridine orange staining of the gel following electrophoresis. The RNA was transfered to a nylon membrane that was subsequently baked at 80° C. for 2 hours. Blots were hybridized with the appropriate ^32p-labeled probe overnight at 65° C. Washes were then performed in a solution containing 0.1% SSC and 0.1% sodium dedecyl sulfate (SDS) for 20 minutes at room temperature, followed by a 20-minute wash at 65° C. Autoradiography was performed at −70° C. Blots were probed with β-actin to confirm equal loading. Appropriate bands were quantified by densitometry.
(§4) Northern blot analyses were performed on keratinocytes maintained in low calcium (0.03 mM) and incubated for 24 hours in the presence of vehicle alone (<0.1% ethanol) or vehicle containing 25-hydroxycholesterol (10 μM), 22(R)-hydroxycholesterol (10 μM) cholesterol (10 μM), or mevalonate (500 μM) (individually). The mRNA levels of involucrin (“INV”) and transglutaminase (“TG'ase”) are shown in the bar graph of FIG. 14a, the INV indicated by clear bars and the TG'ase by shaded bars, both with error limits shown.

transglutaminase mRNA [2] = assay: Transglutaminase mRNA in keratinocytes by Northern Blot; format: cell-based, Human; conditions: for transglutaminase (TG'ase) mRNA level compared to the vehicle alone: low calcium (0.03 mM), 24 hours, 10 μM
Experimental: as §1, §2, §3, §4

transglutaminase protein = assay: Transglutaminase protein level in keratinocytes by Western blotting; format: cell-based, Human; conditions: for TG'ase protein level relative to the control: low calcium (0.03 mM), 24 hours
Experimental: Protein concentration was assessed by protein electrophoresis and Western blotting. Cells were lysed is 2% SDS and the lysate sonicated. Protein determinations were made by use of a Bicinchoninic add protein assay (Pierce Chemical Company, Rockford, Ill. USA). Following protein determination, equal amounts at protein (50 μg) were separated by electrophoresis an 7.5% polyacrylamide gels and electroblotted onto polyvinylidene […] membranes (0.2-μ, obtained from Bio-Rad Laboratories Hercules, Calif., USA). Involucrin protein was detected by incubation over-night at 4° C. C. with a polyclonal rabbit anti-human involucrin antibody (1:1000 dilution). The involucrin-specific bands on the autoradiograms were quantitated by densitometry by densitometry. Transglutaminase protein expression was measured in a similar […], using stacking, sample and running buffers containing 4 M urea, and the gels following electrophoresis were washed in 4 M urea, 25 mM TRIS-HCl, pH 7.4, 7.5 mM NaCl, 0.1 mM dithiothreitol (DTT), and 2 mM ethylenediamine tetraacetic acid for 90 minutes prior to electoblotting, allowing the transglutaminase to be detected by antibody. Specific bands on the autoradiograms were quantified by densitometry. Levels of involucrin and transglutaminase protein were measured in keratinocytes incubated in low calcium (0.03 mM) and treated with the test compounds for 24 hours. The are shown in the bar graph of FIG. 17a, where the test compounds are compared with the vehicle alone (control) and cholesterol, using the same bar indications as in FIGS 14 through 16. […] Cholesterol had no effect.

[3] = test system: Normal human keratinocytes; assay: Cornified envelope formation (35S incorporation) in keratinocytes; format: cell-based; conditions: 10 μM, 48 hours
keratinocytes = assay: Rate of DNA synthesis (3H-thymidine incorporation) in keratinocytes; format: cell-based, Human; conditions: 10 μM, 24 hours, low calcium (0.03 mM); 16-hour 3H-thymidine period
Experimental: The rate of DNA synthesis was determined by measuring the incorporation of ^3H-thymidine into cellular DNA after 16 hours of incubation with 2 μCi^3H-thymidine per mL of media (110 Ci/mmol methyl-1′,2′-^3H-thymidine (Amersham Laboratories, Arlington Heights, Ill. USA). The cells were then solubilized in 1N NaOH, and the radioactivity in the washed TCA precipitate was quantitated by scintillation spectroscopy.
Using the procedures set forth in the Materials and Methods section above, 25-hydroxycholesterol (10 μM) and 22(R)-hydroxycholesterol (10 μM, were compared with cholesterol (10 μM) and the vehicle alone control), with treatment for 24 hours under low calcium (0.03 mM) condition. The results are shown in the bar graph of FIG. 19.

transglutaminase mRNA [4] = assay: Transglutaminase mRNA in keratinocytes by Northern Blot; format: cell-based, Human; conditions: calcium 1.2 mM, 10 μM, 24 hours
involucrin mRNA [5] = assay: Involucrin mRNA in keratinocytes by Northern Blot; format: cell-based, Human; conditions: calcium 1.2 mM, 10 μM, 24 hours
[6] = doses 0-15.0 μM, low calcium, FIG. 15

Compound	increase in INV protein (involucrin protein)	INV protein level relative to the control (involucrin protein)	EC50 (involucrin mRNA [1]; Homo sapiens, Keratinocyte, doses 0-15.0 μM, low calcium, FIG. 15, read-out: dosage of half-maximal effects on INV mRNA)	dosage of maximal effects on INV mRNA (involucrin mRNA [1]; [6])	involucrin (INV) mRNA level compared to the vehicle alone (involucrin mRNA [1])	EC50 (transglutaminase mRNA [2]; Homo sapiens, Keratinocyte, doses 0-15.0 μM, low calcium, FIG. 15, read-out: dosage of half-maximal effects on TG'ase mRNA)	dosage of maximal effects on TG'ase mRNA (transglutaminase mRNA [2]; [6])	transglutaminase (TG'ase) mRNA level compared to the vehicle alone (transglutaminase mRNA [2])	increase in TG'ase protein level (transglutaminase protein; high calcium (1.2 mM), 5 μM)	TG'ase protein level relative to the control (transglutaminase protein)	increase in cornified envelope (CE) formation ([3]; high calcium (1.2 mM))	increase in cornified envelope (CE) formation ([3]; low calcium (0.03 mM))	rate of DNA synthesis (keratinocytes)	TG'ase mRNA level, induction (transglutaminase mRNA [4])	INV mRNA level, induction (involucrin mRNA [5])
CC(C)CC[C@@H](O)[C@@H](C)[C@H]1CC[C@H]2[C@@H]3CC=C4C[C@@H](O)CC[C@]4(C)[C@H]3CC[C@]12C [22(R)-hydroxycholesterol]	2.8 fold	approximately 3.2 fold	~5 µM	10 to 15 µM	approximate twofold increase	~5 µM	10 to 15 µM	approximate twofold increase	2.1 fold	approximately 2.8 fold	2.1 fold	1.3 fold	42 % of control	–	–
CC(C)CCC[C@@H](C)[C@H]1CC[C@H]2[C@@H]3CC=C4C[C@@H](O)CC[C@]4(C)[C@H]3CC[C@]12C [cholesterol]	essentially no increase	had no effect	–	–	neither cholesterol (“chol”) nor mevalonate (“mev”) had any effect	–	–	neither cholesterol (“chol”) nor mevalonate (“mev”) had any effect	–	had no effect	no increase	no increase	117 % of control	no effect	no effect
